# Measured values as given in patent US11332459B2 (TEIJIN PHARMA LIMITED, priority 2017, dated 2022).
# Molecular target: T1, human TRPC6 (Homo sapiens, UniProt Q9Y210)
# T1 construct: expressed in transfected cells
# T1 sequence (Q9Y210 1-931): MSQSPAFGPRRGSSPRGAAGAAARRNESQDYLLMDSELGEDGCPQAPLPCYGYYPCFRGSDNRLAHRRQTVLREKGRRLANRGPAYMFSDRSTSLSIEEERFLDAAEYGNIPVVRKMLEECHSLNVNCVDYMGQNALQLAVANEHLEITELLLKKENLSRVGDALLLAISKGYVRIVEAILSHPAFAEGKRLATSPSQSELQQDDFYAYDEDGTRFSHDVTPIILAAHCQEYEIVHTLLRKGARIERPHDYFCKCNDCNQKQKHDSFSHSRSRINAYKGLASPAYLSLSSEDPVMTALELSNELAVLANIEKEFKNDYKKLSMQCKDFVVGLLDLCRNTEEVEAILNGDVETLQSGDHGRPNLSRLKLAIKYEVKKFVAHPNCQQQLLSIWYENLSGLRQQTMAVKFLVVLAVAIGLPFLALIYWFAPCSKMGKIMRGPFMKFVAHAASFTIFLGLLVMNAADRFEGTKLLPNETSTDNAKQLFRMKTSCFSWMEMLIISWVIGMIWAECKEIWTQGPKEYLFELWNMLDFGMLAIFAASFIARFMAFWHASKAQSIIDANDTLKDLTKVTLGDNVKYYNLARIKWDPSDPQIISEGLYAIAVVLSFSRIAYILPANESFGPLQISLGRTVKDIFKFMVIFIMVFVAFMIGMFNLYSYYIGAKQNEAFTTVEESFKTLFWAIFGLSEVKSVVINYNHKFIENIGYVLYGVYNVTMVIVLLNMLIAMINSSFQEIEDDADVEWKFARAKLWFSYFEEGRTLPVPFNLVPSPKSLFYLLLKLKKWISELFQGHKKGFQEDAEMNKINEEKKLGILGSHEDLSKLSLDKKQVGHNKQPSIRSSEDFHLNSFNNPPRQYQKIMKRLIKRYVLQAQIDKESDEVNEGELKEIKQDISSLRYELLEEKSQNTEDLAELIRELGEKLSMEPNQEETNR
# Test: TRPC6 calcium flux assay (FLIPR, OAG-stimulated calcium influx)
# Assay type: cell-based
# Conditions: HEK293 cells stably transfected with human TRPC6, read-out: hTRPC6 Potency
# In short: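 IC50 derived by plotting background-corrected peak fluorescence (180 s window, normalized to OAG-triggered signal vs buffer) against dose. Stable human TRPC6 HEK293 line was dye-loaded, exposed to compound 25 min, then challenged with 50 uM final OAG in 2 mM Ca2+ HEPES buffer pH 7.2, 0.5% DMSO.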
row,IC50 [µM],Compound
1,0.0187,"N[C@@H]1CN(c2nc3cc(F)c(F)cc3n2Cc2nnc(C(F)F)s2)CC[C@H]1F [Example 560, (3R,4R)-1-(1-((5-(difluoromethyl)-1,3,4-thiadiazol-2-yl)methyl)-5,6-difluoro-1H-benzo[d]imidazol-2-yl)-4-fluoropiperidin-3-amine]"
2,0.0198,"Cc1nnc(Cn2c(N3CC[C@@H](F)[C@H](N)C3)nc3ccc(F)cc32)s1 [Example 561, (3R,4R)-4-fluoro-1-(6-fluoro-1-((5-methyl-1,3,4-thiadiazol-2-yl)methyl)-1H-benzo[d]imidazol-2-yl)piperidin-3-amine]"
3,0.0208,"CS(=O)(=O)c1ccc(Cn2c(N3CC[C@@H](F)[C@H](N)C3)nc3cc(F)c(F)cc32)nc1 [Example 562, (3R,4R)-1-(5,6-difluoro-1-((5-(methylsulfonyl)pyridin-2-yl)methyl)-1H-benzo[d]imidazol-2-yl)-4-fluoropiperidin-3-amine]"
4,0.0216,"CN(C)C(=O)Cn1c(N2CC[C@@H](F)[C@H](N)C2)nc2ccc(C(F)(F)F)cc21 [Example 563, 2-(2-((3R,4R)-3-amino-4-fluoropiperidin-1-yl)-6-(trifluoromethyl)-1H-benzo[d]imidazol-1-yl)-N,N-dimethylacetamide]"
5,0.0292,"Cc1cc(Cn2c(N3CC[C@@H](F)[C@H](N)C3)nc3cc(F)c(F)cc32)no1 [Example 564, (3R,4R)-1-(5,6-difluoro-1-((5-methylisoxazol-3-yl)methyl)-1H-benzo[d]imidazol-2-yl)-4-fluoropiperidin-3-amine]"
6,0.0322,"CN(C)C(=O)Cn1c(N2CC[C@@H](F)[C@H](N)C2)nc2c(F)cc(F)cc21 [Example 565, 2-(2-((3R,4R)-3-amino-4-fluoropiperidin-1-yl)-4,6-difluoro-1H-benzo[d]imidazol-1-yl)-N,N-dimethylacetamide]"
7,0.0352,"CN(C)C(=O)Cn1c(N2CC[C@@H](F)[C@H](N)C2)nc2ccc(F)cc21 [Example 566, 2-(2-((3R,4R)-3-amino-4-fluoropiperidin-1-yl)-6-fluoro-1H-benzo[d]imidazol-1-yl)-N,N-dimethylacetamide]"
8,0.0398,"Cc1cnc(Cn2c(N3CC[C@@H](F)[C@H](N)C3)nc3cc(F)c(F)cc32)o1 [Example 567, (3R,4R)-1-(5,6-difluoro-1-((5-methyloxazol-2-yl)methyl)-1H-benzo[d]imidazol-2-yl)-4-fluoropiperidin-3-amine]"
9,0.0481,"Cc1csc(Cn2c(N3CC[C@@H](F)[C@H](N)C3)nc3cc(F)c(F)cc32)n1 [Example 568, (3R,4R)-1-(5,6-difluoro-1-((4-methylthiazol-2-yl)methyl)-1H-benzo[d]imidazol-2-yl)-4-fluoropiperidin-3-amine]"
10,0.0784,"N[C@@H]1CN(c2nc3ccc(F)cc3n2Cc2nc(C(F)(F)F)no2)CC[C@H]1F [Example 569, (3R,4R)-4-fluoro-1-(6-fluoro-1-((3-(trifluoromethyl)-1,2,4-oxadiazol-5-yl)methyl)-1H-benzo[d]imidazol-2-yl)piperidin-3-amine]"
11,0.0854,"CN(CC(F)(F)F)C(=O)Cn1c(N2CC[C@@H](F)[C@H](N)C2)nc2cc(Cl)ccc21 [Example 570, 2-(2-((3R,4R)-3-amino-4-fluoropiperidin-1-yl)-5-chloro-1H-benzo[d]imidazol-1-yl)-N-methyl-N-(2,2,2-trifluoroethyl)acetamide]"
12,0.0932,"Cc1nnc(Cn2c(N3CC[C@@H](F)[C@H](N)C3)nc3cc(F)c(F)cc32)o1 [Example 571, (3R,4R)-1-(5,6-difluoro-1-((5-methyl-1,3,4-oxadiazol-2-yl)methyl)-1H-benzo[d]imidazol-2-yl)-4-fluoropiperidin-3-amine]"
13,0.106,"Cc1nc(Cn2c(N3CC[C@@H](F)[C@H](N)C3)nc3cc(F)c(F)cc32)no1 [Example 572, (3R,4R)-1-(5,6-difluoro-1-((5-methyl-1,2,4-oxadiazol-3-yl)methyl)-1H-benzo[d]imidazol-2-yl)-4-fluoropiperidin-3-amine]"
14,0.117,"N[C@@H]1CN(c2nc3ccc(F)cc3n2Cc2nnc(C(F)F)s2)CC[C@H]1F [Example 573, (3R,4R)-1-(1-((5-(difluoromethyl)-1,3,4-thiadiazol-2-yl)methyl)-6-fluoro-1H-benzo[d]imidazol-2-yl)-4-fluoropiperidin-3-amine]"
15,0.153,"Cc1nnc(Cn2c(N3CC[C@@H](F)[C@H](N)C3)nc3ncc(F)cc32)s1 [Example 574, (3R,4R)-4-fluoro-1-(6-fluoro-1-((5-methyl-1,3,4-thiadiazol-2-yl)methyl)-1H-imidazo[4,5-b]pyridin-2-yl)piperidin-3-amine]"
16,0.155,"Cc1nc(Cn2c(N3CC[C@@H](F)[C@H](N)C3)nc3cc(F)c(F)cc32)oc1C [Example 575, (3R,4R)-1-(1-((4,5-dimethyloxazol-2-yl)methyl)-5,6-difluoro-1H-benzo[d]imidazol-2-yl)-4-fluoropiperidin-3-amine]"
17,0.169,"CN(C)C(=O)Cn1c(N2CC[C@@H](F)[C@H](N)C2)nc2cc(F)ccc21 [Example 576, 2-(2-((3R,4R)-3-amino-4-fluoropiperidin-1-yl)-5-fluoro-1H-benzo[d]imidazol-1-yl)-N,N-dimethylacetamide]"
18,0.184,"CCc1nc(Cn2c(N3CC[C@@H](F)[C@H](N)C3)nc3cc(F)c(F)cc32)no1 [Example 577, (3R,4R)-1-(1-((5-ethyl-1,2,4-oxadiazol-3-yl)methyl)-5,6-difluoro-1H-benzo[d]imidazol-2-yl)-4-fluoropiperidin-3-amine]"
19,0.251,"N[C@@H]1CN(c2nc3cc(F)c(F)cc3n2Cc2noc(C3CC3)n2)CC[C@H]1F [Example 578, (3R,4R)-1-(1-((5-cyclopropyl-1,2,4-oxadiazol-3-yl)methyl)-5,6-difluoro-1H-benzo[d]imidazol-2-yl)-4-fluoropiperidin-3-amine]"
20,0.312,"Cc1cc(Cn2c(N3CC[C@@H](F)[C@H](N)C3)nc3cc(F)c(F)cc32)on1 [Example 579, (3R,4R)-1-(5,6-difluoro-1-((3-methylisoxazol-5-yl)methyl)-1H-benzo[d]imidazol-2-yl)-4-fluoropiperidin-3-amine]"
21,0.365,"CN(CC(F)(F)F)C(=O)Cn1c(N2CC[C@@H](F)[C@H](N)C2)nc2cc(C(F)(F)F)ccc21 [Example 580, 2-(2-((3R,4R)-3-amino-4-fluoropiperidin-1-yl)-5-(trifluoromethyl)-1H-benzo[d]imidazol-1-yl)-N-methyl-N-(2,2,2-trifluoroethyl)acetamide]"
22,0.368,"N[C@@H]1CN(c2nc3cc(F)c(F)cc3n2Cc2nnc(C3CC3)o2)CC[C@H]1F [Example 581, (3R,4R)-1-(1-((5-cyclopropyl-1,3,4-oxadiazol-2-yl)methyl)-5,6-difluoro-1H-benzo[d]imidazol-2-yl)-4-fluoropiperidin-3-amine]"
23,0.376,"Cc1nnc(Cn2c(N3CC[C@@H](F)[C@H](N)C3)nc3cc(F)ccc32)s1 [Example 582, (3R,4R)-4-fluoro-1-(5-fluoro-1-((5-methyl-1,3,4-thiadiazol-2-yl)methyl)-1H-benzo[d]imidazol-2-yl)piperidin-3-amine]"
24,0.42,N[C@@H]1CN(c2nc3cc(F)cnc3n2Cc2ncc(Cl)cn2)CC[C@H]1F [Example 583]
